System: 3D7-MR4 trophozoite parasite-infected RBCs
Test: Metabolomic profiling (hydrophilic metabolite changes, UHPLC-MS)
Type: cell-based, Plasmodium falciparum

## Ferroquine [reference compound]
10 × IC50^72h, 2.5 hr, trophozoites
  changes within the set of metabolites detected (low fold change group): did not induce major changes
Metabolite 1_3-Bisphosphoglyceric acid, log2 fold change
  Log2(fold changes) 1_3-Bisphosphoglyceric acid: 0.0000
Metabolite 2-Hydroxy-2-methylbutanedioic acid, log2 fold change
  Log2(fold changes) 2-Hydroxy-2-methylbutanedioic acid: -0.0247
Metabolite 2-Isopropylmalic acid, log2 fold change
  Log2(fold changes) 2-Isopropylmalic acid: 0.0000
Metabolite 2-dehydro-D-gluconate, log2 fold change
  Log2(fold changes) 2-dehydro-D-gluconate: -0.3147
Metabolite 2-oxo-4-methylthiobutanoate, log2 fold change
  Log2(fold changes) 2-oxo-4-methylthiobutanoate: 0.0000
Metabolite 2_3-Diphosphoglyceric acid, log2 fold change
  Log2(fold changes) 2_3-Diphosphoglyceric acid: -0.0833
Metabolite 3-phosphoglycerate, log2 fold change
  Log2(fold changes) 3-phosphoglycerate: 0.2090
Metabolite 3-phosphoserine, log2 fold change
  Log2(fold changes) 3-phosphoserine: 0.0000
Metabolite 4-Pyridoxic acid, log2 fold change
  Log2(fold changes) 4-Pyridoxic acid: 0.0751
Metabolite 4-aminobutyrate, log2 fold change
  Log2(fold changes) 4-aminobutyrate: 0.0759
Metabolite 4-phosphopantetheine, log2 fold change
  Log2(fold changes) 4-phosphopantetheine: 0.0000
Metabolite 4-phosphopantothenate, log2 fold change
  Log2(fold changes) 4-phosphopantothenate: 0.0213
Metabolite 5-aminopentanoic acid, log2 fold change
  Log2(fold changes) 5-aminopentanoic acid: 0.0000
Metabolite 5-methyl-THF, log2 fold change
  Log2(fold changes) 5-methyl-THF: 0.0000
Metabolite 5-phosphoribosyl-1-pyrophosphate, log2 fold change
  Log2(fold changes) 5-phosphoribosyl-1-pyrophosphate: 0.0000
Metabolite 6-phospho-D-gluconate, log2 fold change
  Log2(fold changes) 6-phospho-D-gluconate: 0.0000
Metabolite ADP-D-glucose, log2 fold change
  Log2(fold changes) ADP-D-glucose: 0.0625
Metabolite Acetyl-glycine, log2 fold change
  Log2(fold changes) Acetyl-glycine: 0.0000
Metabolite Acetyllysine, log2 fold change
  Log2(fold changes) Acetyllysine: 0.2432
Metabolite Aminoadipic acid, log2 fold change
  Log2(fold changes) Aminoadipic acid: 0.0000
Metabolite CDP, log2 fold change
  Log2(fold changes) CDP: -0.2924
Metabolite CDP-choline, log2 fold change
  Log2(fold changes) CDP-choline: 0.0000
Metabolite CDP-ethanolamine, log2 fold change
  Log2(fold changes) CDP-ethanolamine: 0.1904
Metabolite CMP
  Log2(fold change) of CMP: -0.0276
Metabolite CTP
  Log2(fold change) of CTP: 0.0362
Metabolite Citraconic acid, log2 fold change
  Log2(fold changes) Citraconic acid: 0.0302
Metabolite D-glucarate
  Log2(fold change) of D-glucarate: 0.4691
Metabolite D-gluconate
  Log2(fold change) of D-gluconate: 0.0000
Metabolite D-glucosamine-1/6-phosphate
  Log2(fold change) of D-glucosamine-1/6-phosphate: 0.0000
Metabolite D-sedoheptulose-1/7-phosphate
  Log2(fold change) of D-sedoheptulose-1/7-phosphate: -0.0036
Metabolite DL-Pipecolic Acid
  Log2(fold change) of DL-Pipecolic Acid: -0.1035
Metabolite DLH
  Log2(fold change) of DLH: 0.0094
Metabolite DLS
  Log2(fold change) of DLS: 0.0686
Metabolite Decanoyl-CoA
  Log2(fold change) of Decanoyl-CoA: 0.0000
Metabolite EV
  Log2(fold change) of EV: 0.0000
Metabolite FAD
  Log2(fold change) of FAD: 0.0236
Metabolite FMN
  Log2(fold change) of FMN: 0.1126
Metabolite G3P/DHAP
  Log2(fold change) of G3P/DHAP: 0.0000
Metabolite GDP
  Log2(fold change) of GDP: -0.2435
Metabolite GMP
  Log2(fold change) GMP: -0.0369
Metabolite GTP
  Log2(fold change) GTP: 0.0612
Metabolite HVDD
  Log2(fold change) HVDD: 0.0000
Metabolite Hexose
  Log2(fold change) Hexose: 0.9215
Metabolite Hydroxyisocaproic acid
  Log2(fold change) Hydroxyisocaproic acid: 0.0000
Metabolite IDP
  Log2(fold change) IDP: 0.0000
Metabolite IMP
  Log2(fold change) IMP: -0.0158
Metabolite Inositol
  Log2(fold change) Inositol: 0.0000
Metabolite Isopentyl-PP
  Log2(fold change) Isopentyl-PP: 0.0768
Metabolite L-arginino-succinate
  Log2(fold change) L-arginino-succinate: 0.0000
Metabolite LD
  Log2(fold change) LD: 0.1184
Metabolite Myristoyl/tetradecanoyl-CoA
  Log2(fold change) Myristoyl/tetradecanoyl-CoA: 0.0000
Metabolite N-Acetyl-L-alanine
  Log2(fold change) N-Acetyl-L-alanine: -0.1094
Metabolite N-acetyl-L-ornithine
  Log2(fold change) N-acetyl-L-ornithine: 0.3046
Metabolite N-acetyl-glucosamine-1/6-phosphate
  Log2(fold change) N-acetyl-glucosamine-1/6-phosphate: -0.0561
Metabolite N-acetyl-glutamate
  Log2(fold change) N-acetyl-glutamate: 0.1101
Metabolite N-acetyl-glutamine
  Log2(fold change) N-acetyl-glutamine: 0.0004
Metabolite N-carbamoyl-L-aspartate
  Log2(fold change) N-carbamoyl-L-aspartate: 0.0860
Metabolite NAD+
  Log2(fold change) NAD+: 0.0993
Metabolite NADH
  Log2(fold change) NADH: 0.0000
Metabolite NADP+
  Log2(fold change) NADP+: -0.0805
Metabolite NADPH
  Log2(fold change) NADPH: 0.9289
Metabolite O-acetyl-L-serine
  Log2(fold change) O-acetyl-L-serine: 0.0000
Metabolite Octoluse 8/1P
  Log2(fold change) Octoluse 8/1P: 0.1026
Metabolite Octoluse Bisphosphate
  Log2(fold change) Octoluse Bisphosphate: 0.0231
Metabolite PD
  Log2(fold change) PD: 0.1011
Metabolite PE
  Log2(fold change) PE: 0.0655
Metabolite PEE
  Log2(fold change) PEE: 0.0431
Metabolite PEEK
  Log2(fold change) PEEK: 0.3448
Metabolite PVNF
  Log2(fold change) PVNF: 0.0000
Metabolite Pyroglutamic acid
  Log2(fold change) Pyroglutamic acid: 0.1702
Metabolite Pyrophosphate
  Log2(fold change) Pyrophosphate: 0.0000
Metabolite Ribose-5-phosphate
  Log2(fold change) Ribose-5-phosphate: 0.0000
Metabolite S-adenosyl-L-homocysteine
  Log2(fold change) S-adenosyl-L-homocysteine: 0.0736
Metabolite S-adenosyl-L-methioninamine
  Log2(fold change) S-adenosyl-L-methioninamine: 0.0000
Metabolite S-adenosyl-L-methionine
  Log2(fold change) S-adenosyl-L-methionine: 0.0000
Metabolite S-methyl-5'-thioadenosine
  Log2(fold change) S-methyl-5'-thioadenosine: 0.0000
Metabolite SD
  Log2(fold change) SD: 0.1281
Metabolite SDL
  Log2(fold change) SDL: 0.2089
Metabolite SID
  Log2(fold change) SID: 0.0000
Metabolite Sedoheptulose bisphosphate
  Log2(fold change) Sedoheptulose bisphosphate: 0.0573
Metabolite Thiamine pyrophosphate
  Log2(fold change) Thiamine pyrophosphate: 0.0000
Metabolite UDP-D-glucose, log2 fold change
  Log2(fold changes) UDP-D-glucose: 0.0465
Metabolite UDP-D-glucuronate, log2 fold change
  Log2(fold changes) UDP-D-glucuronate: 0.0272
Metabolite UDP-N-acetyl-glucosamine, log2 fold change
  Log2(fold changes) UDP-N-acetyl-glucosamine: 0.0319
Metabolite UDP, log2 fold change
  Log2(fold changes) UDP: -0.2525
Metabolite UMP, log2 fold change
  Log2(fold changes) UMP: -0.0522
Metabolite UTP, log2 fold change
  Log2(fold changes) UTP: 0.1015
Metabolite VD, log2 fold change
  Log2(fold changes) VD: 0.1916
Metabolite Xanthurenic acid, log2 fold change
  Log2(fold changes) Xanthurenic acid: 0.0000
Metabolite a-ketoglutarate, log2 fold change
  Log2(fold changes) a-ketoglutarate: -0.2164
Metabolite acetyl-CoA, log2 fold change
  Log2(fold changes) acetyl-CoA: 0.0673
Metabolite acetyl-aspartate, log2 fold change
  Log2(fold changes) acetyl-aspartate: -0.0096
Metabolite acetylphosphate, log2 fold change
  Log2(fold changes) acetylphosphate: 0.0000
Metabolite aconitate, log2 fold change
  Log2(fold changes) aconitate: 0.0000
Metabolite adenine, log2 fold change
  Log2(fold changes) adenine: 0.0000
Metabolite adenosine 5'-phosphosulfate, log2 fold change
  Log2(fold changes) adenosine 5'-phosphosulfate: -0.1961
